Drawing on patent US20240425479A1, “HALO-SUBSTITUTED AMINO AZA-HETEROARYL COMPOUNDS AS INHIBITORS OF THE HAEMATOPOIETIC PROGENITOR KINASE 1 (HPK1)” (priority 2021, published 2024), this text covers IC50 for 21 compounds.

The target in the assay is T1, Recombinant (1-346) HPK1 (h) (Homo sapiens, UniProt Q92918).
T1 construct: Recombinant (1-346) HPK1 (h) is incubated with 8 mM MOPS pH 7.0
T1 sequence (Q92918 1-346): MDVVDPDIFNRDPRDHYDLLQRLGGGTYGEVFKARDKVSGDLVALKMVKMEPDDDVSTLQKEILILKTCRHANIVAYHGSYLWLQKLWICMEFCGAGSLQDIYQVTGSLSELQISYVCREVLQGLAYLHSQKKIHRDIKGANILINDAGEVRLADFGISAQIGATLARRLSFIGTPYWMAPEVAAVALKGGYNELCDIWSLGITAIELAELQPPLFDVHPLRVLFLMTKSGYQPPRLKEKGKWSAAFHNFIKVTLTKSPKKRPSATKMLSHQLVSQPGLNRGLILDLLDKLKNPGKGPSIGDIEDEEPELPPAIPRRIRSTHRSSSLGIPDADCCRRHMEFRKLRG
As to the kind of experiment: HPK1 human STE kinase enzymatic radiometric assay. The following applies: read-out: HPK1 IC50 nM Range. The assay is classed as biochemical. Put shortly:
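Recombinant HPK1 (1-346) incubated 40 min at RT with 0.33 mg/mL myelin basic protein and [gamma-33P]-ATP in 8 mM MOPS pH 7.0, 0.2 mM EDTA, 10 mM Mg acetate; reaction started with Mg/ATP. Stopped with 0.5% phosphoric acid, spotted on P30 filtermat, washed, scintillation counted. Compounds tested as 9-point 3-fold dilutions.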
As to `Cc1[nH]c(=O)c2ccc(-c3nc(-c4ccc(N5CCOCC5)c(CN(C)C)c4)c(F)nc3N)cc2c1F` [Example I-101, 6-(3-amino-6-(3-((dimethylamino)methyl)-4-morpholinophenyl)-5-fluoropyrazin-2-yl)-4-fluoro-3-methylisoquinolin-1(2H)-one], the IC50 was in the range of 0.1 to 10 nM. In the case of `Cc1c[nH]c(=O)c2ccc(-c3nc(-c4ccc(O)c(C(C)N(C)C)c4)c(F)nc3N)cc12` (stereo not drawn) [Example I-304, 6-(3-amino-6-(3-(1-(dimethylamino)ethyl)-4-hydroxyphenyl)-5-fluoropyrazin-2-yl)-4-methylisoquinolin-1(2H)-one] it was 0.1 to 10 nM. In the case of `Nc1nc(F)c(-c2ccc(OC3CCOCC3)c(CN3CCC3)c2)nc1-c1cc2c(cc1F)C(=O)NCC2` [Example I-209, 6-(3-amino-6-(3-(azetidin-1-ylmethyl)-4-((tetrahydro-2H-pyran-4-yl)oxy)phenyl)-5-fluoropyrazin-2-yl)-7-fluoro-3,4-dihydroisoquinolin-1(2H)-one] it was 11 to 100 nM; in that of `Nc1nc(F)c(-c2ccc(C3CCOCC3)c(CN3CCCC3)c2)nc1-c1ccc2c(=O)[nH]cc(F)c2c1` [Example I-207, 6-(3-amino-5-fluoro-6-(3-(pyrrolidin-1-ylmethyl)-4-(tetrahydro-2H-pyran-4-yl)phenyl)pyrazin-2-yl)-4-fluoroisoquinolin-1(2H)-one], 0.1 to 10 nM; in that of `C[C@@H]1CN(c2ccc(-c3nc(-c4ccc5c(=O)[nH]cc(Cl)c5c4)c(N)nc3F)cc2CN(C)C)C[C@H](C)O1` [Example I-231, 6-(3-amino-6-(3-((dimethylamino)methyl)-4-((2R,6S)-2,6-dimethylmorpholino)phenyl)-5-fluoropyrazin-2-yl)-4-chloroisoquinolin-1(2H)-one], 0.1 to 10 nM. In the case of `COc1ccc(-c2nc(-c3cc4c(cc3F)C(=O)NCC4)c(N)nc2F)cc1CN(C)C` [Example I-249, 6-(3-amino-6-(3-((dimethylamino)methyl)-4-methoxyphenyl)-5-fluoropyrazin-2-yl)-7-fluoro-3,4-dihydroisoquinolin-1(2H)-one] it was 0.1 to 10 nM.

As to `COc1ccc(-c2nc(-c3ccc4c(=O)[nH]cc(F)c4c3)c(N)nc2F)cc1C(C)N(C)C` (stereo not drawn) [Example I-291, 6-(3-amino-6-(3-(1-(dimethylamino)ethyl)-4-methoxyphenyl)-5-fluoropyrazin-2-yl)-4-fluoroisoquinolin-1(2H)-one], the IC50 lay in the range of 0.1 to 10 nM.

In the case of `Cc1c[nH]c(=O)c2ccc(-c3nc(-c4ccc5c(c4)[C@H](N(C)C)CCO5)c(F)nc3N)cc12` [Example I-285, (R)-6-(3-amino-6-(4-(dimethylamino)chroman-6-yl)-5-fluoropyrazin-2-yl)-4-methylisoquinolin-1(2H)-one], the IC50 lay in the range of 0.1 to 10 nM. In the case of `C[C@@H]1CN(c2ccc(-c3nc(-c4ccc5c(=O)[nH]cc(F)c5c4)c(N)nc3F)cc2)C[C@H](C)N1C` [Example I-93, 6-(3-amino-5-fluoro-6-(4-((3R,5S)-3,4,5-trimethylpiperazin-1-yl)phenyl)pyrazin-2-yl)-4-fluoroisoquinolin-1(2H)-one] it was 0.1 to 10 nM; in that of `Cc1[nH]c(=O)c2ccc(-c3nc(-c4ccc(C5CCOCC5)c(CN(C)C)c4)c(F)nc3N)cc2c1Cl` [Example I-125, 6-(3-amino-6-(3-((dimethylamino)methyl)-4-(tetrahydro-2H-pyran-4-yl)phenyl)-5-fluoropyrazin-2-yl)-4-chloro-3-methylisoquinolin-1(2H)-one], 0.1 to 10 nM; in that of `Nc1nc(F)c(-c2ccc(N3CCOCC3)c(CN3CCCCC3)c2)nc1-c1cc(F)c2c(c1)CCNC2=O` [Example I-187, 6-(3-amino-5-fluoro-6-(4-morpholino-3-(piperidin-1-ylmethyl)phenyl)pyrazin-2-yl)-8-fluoro-3,4-dihydroisoquinolin-1(2H)-one], 11 to 100 nM.

As for `CCN(C)Cc1cc(-c2nc(-c3ccc4c(=O)[nH]cc(C)c4c3)c(N)nc2F)ccc1OC` [Example I-301, 6-(3-amino-6-(3-((ethyl(methyl)amino)methyl)-4-methoxyphenyl)-5-fluoropyrazin-2-yl)-4-methylisoquinolin-1(2H)-one], the 50% inhibitory concentration (IC50) lay in the range of 11 to 100 nM. As to `Nc1nc(F)c(-c2ccc(N3CCOCC3)c(CN3CCCC3)c2)nc1-c1ccc2c(=O)[nH]cc(F)c2c1` [Example I-200, 6-(3-amino-5-fluoro-6-(4-morpholino-3-(pyrrolidin-1-ylmethyl)phenyl)pyrazin-2-yl)-4-fluoroisoquinolin-1(2H)-one], the IC50 was 0.1 to 10 nM. Under `C[C@@H]1CN(c2ccc(-c3nc(-c4cc5c(cc4F)C(=O)NCC5)c(N)nc3F)cc2)C[C@H](C)N1C` [Example I-58, 6-(3-amino-5-fluoro-6-(4-((3R,5S)-3,4,5-trimethylpiperazin-1-yl)phenyl)pyrazin-2-yl)-7-fluoro-3,4-dihydroisoquinolin-1(2H)-one] stands 0.1 to 10 nM. In the case of `Cc1c[nH]c(=O)c2ccc(-c3nc(-c4ccc(N5CCOCC5)c(CN5CCCC5)c4)c(F)nc3N)cc12` [Example I-203, 6-(3-amino-5-fluoro-6-(4-morpholino-3-(pyrrolidin-1-ylmethyl)phenyl)pyrazin-2-yl)-4-methylisoquinolin-1(2H)-one] it was 0.1 to 10 nM; in that of `Cc1c[nH]c(=O)c2ccc(-c3nc(-c4ccc(C5CCOCC5)c(CN5CCC5)c4)c(F)nc3N)cc12` [Example I-206, 6-(3-amino-6-(3-(azetidin-1-ylmethyl)-4-(tetrahydro-2H-pyran-4-yl)phenyl)-5-fluoropyrazin-2-yl)-4-methylisoquinolin-1(2H)-one], 0.1 to 10 nM; in that of `CN(C)[C@@H]1CCOc2ccc(-c3nc(-c4ccc5c(c4)CCNC5=O)c(N)nc3F)cc21` [Example I-287, (R)-6-(3-amino-6-(4-(dimethylamino)chroman-6-yl)-5-fluoropyrazin-2-yl)-3,4-dihydroisoquinolin-1(2H)-one], 0.1 to 10 nM. Under `CCN(C)Cc1cc(-c2nc(-c3cc4c(cc3F)C(=O)NCC4)c(N)nc2F)cc(C)c1OC` [Example I-303, 6-(3-amino-6-(3-((ethyl(methyl)amino)methyl)-4-methoxy-5-methylphenyl)-5-fluoropyrazin-2-yl)-7-fluoro-3,4-dihydroisoquinolin-1(2H)-one] stands 0.1 to 10 nM.

On to `Cc1[nH]c(=O)c2c(F)cc(-c3nc(-c4ccc(N5CCN(C(C)C)CC5)cc4)c(F)nc3N)cc2c1Cl` [Example I-102, 6-(3-amino-5-fluoro-6-(4-(4-isopropylpiperazin-1-yl)phenyl)pyrazin-2-yl)-4-chloro-8-fluoro-3-methylisoquinolin-1(2H)-one], for which the IC50 was 0.1 to 10 nM. For `Nc1nc(F)c(-c2ccc(N3CCN(C4CCC4)CC3)cc2)nc1-c1ccc2c(c1)CCNC2=O` [Example I-49, 6-(3-amino-6-(4-(4-cyclobutylpiperazin-1-yl)phenyl)-5-fluoropyrazin-2-yl)-3,4-dihydroisoquinolin-1(2H)-one], the 50% inhibitory concentration (IC50) lay within 0.1 to 10 nM.

As to `CN(C)[C@@H]1COc2ccc(-c3nc(-c4ccc5c(c4)C(F)(F)CNC5=O)c(N)nc3F)cc21` [Example I-256, (S)-6-(3-amino-6-(3-(dimethylamino)-2,3-dihydrobenzofuran-5-yl)-5-fluoropyrazin-2-yl)-4,4-difluoro-3,4-dihydroisoquinolin-1(2H)-one], the IC50 lay in the range of 0.1 to 10 nM.
